Results published in publication PMC9954146, “Anti-Leukaemic Activity of Rilpivirine Is Mediated by Aurora A Kinase Inhibition” (Cancers, 2023).

What was measured:
IKKβ(h) = target: T1, IKKβ(h) (Homo sapiens, UniProt O14920); assay: Kinase panel; assay type: biochemical; settings: read-out: % Residual Activity
T1 construct: purchased Eurofins (KinaseProfiler)
Procedure: (§1) Kinome-wide selectivity of rilpivirine was measured using the kinase screening and profiling service of Eurofins Scientific (Le bois l’Evêque 86600. Celle-Lévescault, France) and Ki values were determined using radioisotope-based assays by Reaction Biology Corporation (Malvern, PA, USA). The experimental details of Eurofin Scientific and Reaction Biology services for relevant assays are available at https://www.eurofinsdiscoveryservices.com/services/in-Vitro-assays/kinases/kinase-profiler (accessed on 7 July 2021) and https://www.reactionbiology.com (accessed on 7 July 2021), respectively. Ki values were estimated from the corresponding IC50 values using the Cheng–Prusoff equation [21] and the Km (ATP) of individual kinase was used for IC50 determination.

PAK5(h) = target: T2, PAK5(h) (Homo sapiens, UniProt Q9P286); assay: Kinase panel; assay type: biochemical; settings: read-out: % Residual Activity
T2 construct: purchased Eurofins (KinaseProfiler)
Procedure: as §1

MARK1(h) = target: T3, MARK1(h) (Homo sapiens, UniProt Q9P0L2); assay: Kinase panel; assay type: biochemical; settings: read-out: % Residual Activity
T3 construct: purchased Eurofins (KinaseProfiler)
Procedure: as §1

CK1γ3(h) = target: T4, CK1γ3(h) (Homo sapiens, UniProt Q9Y6M4); assay: Kinase panel; assay type: biochemical; settings: read-out: % Residual Activity
T4 construct: purchased Eurofins (KinaseProfiler)
Procedure: as §1

SGK3(h) = target: T5, SGK3(h) (Homo sapiens, UniProt Q96BR1); assay: Kinase panel; assay type: biochemical; settings: read-out: % Residual Activity
T5 construct: purchased Eurofins (KinaseProfiler)
Procedure: as §1

MLCK(h) = target: T6, MLCK(h) (Homo sapiens, UniProt Q15746); assay: Kinase panel; assay type: biochemical; settings: read-out: % Residual Activity
T6 construct: purchased Eurofins (KinaseProfiler)
Procedure: as §1

GRK7(h) = target: T7, GRK7(h) (Homo sapiens, UniProt Q8WTQ7); assay: Kinase panel; assay type: biochemical; settings: read-out: % Residual Activity
T7 construct: purchased Eurofins (KinaseProfiler)
Procedure: as §1

PAK1(h) = target: T8, PAK1(h) (Homo sapiens, UniProt Q13153); assay: Kinase panel; assay type: biochemical; settings: read-out: % Residual Activity
T8 construct: purchased Eurofins (KinaseProfiler)
Procedure: as §1

PIP4K2a(h) = PIP4K2a(h) (Homo sapiens, UniProt P48426); assay: Kinase panel; assay type: biochemical; settings: read-out: % Residual Activity
Procedure: as §1

KDR(h) = target: T9, KDR(h) (Homo sapiens, UniProt P35968); assay: Kinase panel; assay type: biochemical; settings: read-out: % Residual Activity
T9 construct: purchased Eurofins (KinaseProfiler)
Procedure: as §1

BIKe(h) = target: T10, BIKe(h) (Homo sapiens, UniProt Q9NSY1); assay: Kinase panel; assay type: biochemical; settings: read-out: % Residual Activity
T10 construct: purchased Eurofins (KinaseProfiler)
Procedure: as §1

TSSK4(h) = target: T11, TSSK4(h) (Homo sapiens, UniProt Q6SA08); assay: Kinase panel; assay type: biochemical; settings: read-out: % Residual Activity
T11 construct: purchased Eurofins (KinaseProfiler)
Procedure: as §1

PRK2(h) = target: T12, PRK2(h) (Homo sapiens, UniProt Q16513); assay: Kinase panel; assay type: biochemical; settings: read-out: % Residual Activity
T12 construct: purchased Eurofins (KinaseProfiler)
Procedure: as §1

CLK1(h) = target: T13, CLK1(h) (Homo sapiens, UniProt P49759); assay: Kinase panel; assay type: biochemical; settings: read-out: % Residual Activity
T13 construct: purchased Eurofins (KinaseProfiler)
Procedure: as §1

DYRK1B(h) = target: T14, DYRK1B(h) (Homo sapiens, UniProt Q9Y463); assay: Kinase panel; assay type: biochemical; settings: read-out: % Residual Activity
T14 construct: purchased Eurofins (KinaseProfiler)
Procedure: as §1

ULK1(h) = target: T15, ULK1(h) (Homo sapiens, UniProt O75385); assay: Kinase panel; assay type: biochemical; settings: read-out: % Residual Activity
T15 construct: purchased Eurofins (KinaseProfiler)
Procedure: as §1

MEKK3(h) = target: T16, MEKK3(h) (Homo sapiens, UniProt Q99759); assay: Kinase panel; assay type: biochemical; settings: read-out: % Residual Activity
T16 construct: purchased Eurofins (KinaseProfiler)
Procedure: as §1

Rsk1(h) = target: T17, Rsk1(h) (Homo sapiens, UniProt Q15418); assay: Kinase panel; assay type: biochemical; settings: read-out: % Residual Activity
T17 construct: purchased Eurofins (KinaseProfiler)
Procedure: as §1

[1] = target: PI3 Kinase (p110a(H1047R)/p85a)(m) (Mus musculus, UniProt P42337, H1047R); assay: Kinase panel; assay type: biochemical; settings: read-out: % Residual Activity
Procedure: as §1

MAP4K3(h) = target: T18, MAP4K3(h) (Homo sapiens, UniProt Q8IVH8); assay: Kinase panel; assay type: biochemical; settings: read-out: % Residual Activity
T18 construct: purchased Eurofins (KinaseProfiler)
Procedure: as §1

CaMKIV(h) = target: T19, CaMKIV(h) (Homo sapiens, UniProt Q16566); assay: Kinase panel; assay type: biochemical; settings: read-out: % Residual Activity
T19 construct: purchased Eurofins (KinaseProfiler)
Procedure: as §1

[2] = target: T20, PI3 Kinase (p110d/p85a)(h) (Homo sapiens, UniProt O00329); assay: Kinase panel; assay type: biochemical; settings: read-out: % Residual Activity
T20 construct: purchased Eurofins (KinaseProfiler)
Procedure: as §1

CDK14/cyclinY(h) = target: T21, CDK14/cyclinY(h) (Homo sapiens, UniProt O94921); assay: Kinase panel; assay type: biochemical; settings: read-out: % Residual Activity
T21 construct: purchased Eurofins (KinaseProfiler)
Procedure: as §1

STK32C(h) = target: T22, STK32C(h) (Homo sapiens, UniProt Q86UX6); assay: Kinase panel; assay type: biochemical; settings: read-out: % Residual Activity
T22 construct: purchased Eurofins (KinaseProfiler)
Procedure: as §1

FGFR1(V561M)(h) = target: T23, FGFR1(V561M)(h) (Homo sapiens, UniProt P11362, V561M); assay: Kinase panel; assay type: biochemical; settings: read-out: % Residual Activity
T23 construct: purchased Eurofins (KinaseProfiler)
Procedure: as §1

STK32B(h) = target: T24, STK32B(h) (Homo sapiens, UniProt Q9NY57); assay: Kinase panel; assay type: biochemical; settings: read-out: % Residual Activity
T24 construct: purchased Eurofins (KinaseProfiler)
Procedure: as §1

CK1(y) = assay: Kinase panel; assay type: biochemical, yeast; settings: 1 μM
Procedure: as §1

U-937 cells = assay: Cell cycle analysis (PI, flow cytometry); assay type: cell-based, human; settings: 20 μM, 24 h
Procedure: (§2) To determine the effect of rilpivirine on cell-cycle distribution a flow cytometry-based analysis was performed after staining the untreated and treated cells with propidium iodide (PI) solution [22]. Briefly, 6 × 10^4 cells/well were seeded in 3 mL of medium per well in 6-well plates. After overnight incubation at 37 °C in 5% CO2, the cells were incubated with the test compounds for specified time points. The medium-containing cells were then taken out from the wells and transferred to FACS tubes. Cells were then pelleted by centrifugation at 300 g for 5 min. Afterward, cells were fixed by using 70% (v/v) ice-cold ethanol for 15 min and then again pelleted by centrifugation (300 g for 5 min). Finally, the cells were incubated with 200 µL of PI staining solution (50 μg/mL PI, 0.1% sodium citrate, 0.1 mg/mL RNase A, and 0.1% Triton X-100) for 1.5 h at room temperature in the dark. After the incubation period, the cells were analysed using a CytoFLEX flow cytometer (Beckman Coulter Inc., Brea, CA, USA). CytExpert software version 2.1 was used for data analysis and graph preparation.

KG1 cells = assay: Cell cycle analysis (PI, flow cytometry); assay type: cell-based, human; settings: 10 µM or 20 µM, 24 h
Procedure: as §2

NB4 cells = assay: Cell cycle analysis (PI, flow cytometry); assay type: cell-based, human; settings: 20 μM, 24 h
Procedure: as §2

K-562 cells = assay: Cell cycle analysis (PI, flow cytometry); assay type: cell-based, human; settings: 20 μM, 24 h
Procedure: as §2

HL-60 cells = assay: Cell cycle analysis (PI, flow cytometry); assay type: cell-based, human; settings: for G2-M cells: 24 h
Procedure: as §2

T5 sequence (Q96BR1 whole entry): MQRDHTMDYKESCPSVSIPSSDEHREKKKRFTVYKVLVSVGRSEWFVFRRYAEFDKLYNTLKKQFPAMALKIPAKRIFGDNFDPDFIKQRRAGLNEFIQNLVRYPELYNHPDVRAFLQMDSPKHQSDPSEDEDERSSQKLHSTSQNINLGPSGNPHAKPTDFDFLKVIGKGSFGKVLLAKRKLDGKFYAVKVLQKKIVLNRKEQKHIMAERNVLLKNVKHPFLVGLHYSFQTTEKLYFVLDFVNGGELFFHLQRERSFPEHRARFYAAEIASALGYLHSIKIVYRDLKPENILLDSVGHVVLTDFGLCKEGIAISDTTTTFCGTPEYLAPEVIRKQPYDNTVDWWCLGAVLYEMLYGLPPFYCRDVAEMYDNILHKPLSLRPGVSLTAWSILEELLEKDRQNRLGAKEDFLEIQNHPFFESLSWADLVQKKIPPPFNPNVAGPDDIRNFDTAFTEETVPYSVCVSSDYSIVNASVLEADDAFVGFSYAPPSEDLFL
T2 sequence (Q9P286 whole entry): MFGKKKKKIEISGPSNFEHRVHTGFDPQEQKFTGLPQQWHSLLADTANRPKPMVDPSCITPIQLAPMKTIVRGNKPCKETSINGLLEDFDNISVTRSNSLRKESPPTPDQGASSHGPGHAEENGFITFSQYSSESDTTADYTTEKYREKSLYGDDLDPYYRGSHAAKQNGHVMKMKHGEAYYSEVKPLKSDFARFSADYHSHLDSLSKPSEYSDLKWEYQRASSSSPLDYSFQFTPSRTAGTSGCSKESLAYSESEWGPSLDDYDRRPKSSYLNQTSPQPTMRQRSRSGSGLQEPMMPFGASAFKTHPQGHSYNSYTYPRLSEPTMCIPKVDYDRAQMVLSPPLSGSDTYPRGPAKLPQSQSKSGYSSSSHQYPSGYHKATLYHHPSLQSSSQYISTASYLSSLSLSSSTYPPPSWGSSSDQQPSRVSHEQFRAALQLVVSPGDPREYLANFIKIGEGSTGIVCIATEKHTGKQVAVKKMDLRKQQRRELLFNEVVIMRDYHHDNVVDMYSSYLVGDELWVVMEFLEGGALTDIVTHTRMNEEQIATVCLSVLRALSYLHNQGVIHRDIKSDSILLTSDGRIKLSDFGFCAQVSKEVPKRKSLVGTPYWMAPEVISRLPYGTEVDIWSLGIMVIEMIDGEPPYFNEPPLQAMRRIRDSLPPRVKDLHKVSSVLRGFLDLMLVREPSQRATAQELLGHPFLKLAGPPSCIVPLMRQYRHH
T17 sequence (Q15418 whole entry): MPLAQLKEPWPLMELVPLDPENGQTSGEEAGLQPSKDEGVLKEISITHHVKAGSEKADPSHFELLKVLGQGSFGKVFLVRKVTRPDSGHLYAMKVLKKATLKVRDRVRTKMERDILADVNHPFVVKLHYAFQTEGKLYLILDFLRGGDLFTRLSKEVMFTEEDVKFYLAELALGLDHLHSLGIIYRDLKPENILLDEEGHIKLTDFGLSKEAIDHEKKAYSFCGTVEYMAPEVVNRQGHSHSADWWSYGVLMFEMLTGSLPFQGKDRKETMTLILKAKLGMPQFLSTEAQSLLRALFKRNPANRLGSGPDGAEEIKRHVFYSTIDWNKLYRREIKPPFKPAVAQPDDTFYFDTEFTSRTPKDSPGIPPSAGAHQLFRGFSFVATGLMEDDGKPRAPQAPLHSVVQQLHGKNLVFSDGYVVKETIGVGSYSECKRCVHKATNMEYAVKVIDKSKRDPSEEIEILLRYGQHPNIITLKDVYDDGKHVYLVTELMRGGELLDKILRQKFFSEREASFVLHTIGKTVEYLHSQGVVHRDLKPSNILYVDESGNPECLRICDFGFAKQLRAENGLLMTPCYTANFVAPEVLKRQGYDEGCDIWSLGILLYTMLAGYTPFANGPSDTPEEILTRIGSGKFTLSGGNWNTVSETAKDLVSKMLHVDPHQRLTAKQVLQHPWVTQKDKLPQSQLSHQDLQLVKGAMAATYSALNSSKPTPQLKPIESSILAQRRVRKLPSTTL
T3 sequence (Q9P0L2 whole entry): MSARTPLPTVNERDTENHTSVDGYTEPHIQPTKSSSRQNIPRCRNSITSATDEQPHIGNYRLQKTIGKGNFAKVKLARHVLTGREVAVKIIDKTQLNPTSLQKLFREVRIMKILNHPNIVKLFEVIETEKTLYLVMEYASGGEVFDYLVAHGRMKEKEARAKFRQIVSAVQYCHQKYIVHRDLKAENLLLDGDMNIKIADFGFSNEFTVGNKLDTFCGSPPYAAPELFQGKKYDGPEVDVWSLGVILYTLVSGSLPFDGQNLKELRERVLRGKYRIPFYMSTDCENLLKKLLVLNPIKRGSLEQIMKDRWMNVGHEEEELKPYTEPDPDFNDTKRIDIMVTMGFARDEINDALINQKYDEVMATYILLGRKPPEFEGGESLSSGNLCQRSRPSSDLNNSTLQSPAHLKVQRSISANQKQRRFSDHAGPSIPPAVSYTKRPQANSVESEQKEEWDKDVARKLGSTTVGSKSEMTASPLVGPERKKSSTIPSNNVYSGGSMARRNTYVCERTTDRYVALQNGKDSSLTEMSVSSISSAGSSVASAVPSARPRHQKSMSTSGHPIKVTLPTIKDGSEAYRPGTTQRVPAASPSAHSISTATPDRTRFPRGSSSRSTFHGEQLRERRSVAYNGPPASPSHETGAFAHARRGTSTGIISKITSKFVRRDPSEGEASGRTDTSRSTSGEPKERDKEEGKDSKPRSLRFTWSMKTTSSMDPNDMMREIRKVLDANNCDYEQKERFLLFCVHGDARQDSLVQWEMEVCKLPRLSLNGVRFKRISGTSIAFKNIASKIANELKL
T15 sequence (O75385 whole entry): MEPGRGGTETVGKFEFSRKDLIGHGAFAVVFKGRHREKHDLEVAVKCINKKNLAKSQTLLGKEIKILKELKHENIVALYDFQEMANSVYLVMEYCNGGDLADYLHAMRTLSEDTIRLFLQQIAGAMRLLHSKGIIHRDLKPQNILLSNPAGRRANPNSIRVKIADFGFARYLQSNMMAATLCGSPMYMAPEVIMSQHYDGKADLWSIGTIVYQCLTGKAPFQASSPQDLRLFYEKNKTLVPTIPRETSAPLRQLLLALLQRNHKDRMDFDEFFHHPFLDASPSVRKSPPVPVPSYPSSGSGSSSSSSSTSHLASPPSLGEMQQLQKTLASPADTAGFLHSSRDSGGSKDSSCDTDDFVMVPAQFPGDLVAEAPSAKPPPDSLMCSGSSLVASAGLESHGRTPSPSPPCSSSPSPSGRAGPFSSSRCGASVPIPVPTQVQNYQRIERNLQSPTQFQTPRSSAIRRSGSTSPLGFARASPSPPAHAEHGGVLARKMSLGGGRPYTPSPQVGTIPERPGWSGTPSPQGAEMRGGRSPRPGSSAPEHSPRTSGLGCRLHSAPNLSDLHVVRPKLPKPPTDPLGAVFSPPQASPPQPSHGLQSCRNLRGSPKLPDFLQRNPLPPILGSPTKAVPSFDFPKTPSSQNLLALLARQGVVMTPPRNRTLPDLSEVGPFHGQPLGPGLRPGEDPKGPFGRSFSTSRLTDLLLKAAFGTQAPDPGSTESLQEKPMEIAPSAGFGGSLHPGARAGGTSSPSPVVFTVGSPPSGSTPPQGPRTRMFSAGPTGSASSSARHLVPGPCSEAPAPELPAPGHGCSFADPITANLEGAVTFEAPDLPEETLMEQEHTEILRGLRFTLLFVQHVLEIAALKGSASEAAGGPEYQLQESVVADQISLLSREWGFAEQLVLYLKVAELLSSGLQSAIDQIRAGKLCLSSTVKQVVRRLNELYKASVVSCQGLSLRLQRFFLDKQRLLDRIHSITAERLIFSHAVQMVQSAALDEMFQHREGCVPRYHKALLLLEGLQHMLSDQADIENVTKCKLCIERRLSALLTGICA
T13 sequence (P49759 whole entry): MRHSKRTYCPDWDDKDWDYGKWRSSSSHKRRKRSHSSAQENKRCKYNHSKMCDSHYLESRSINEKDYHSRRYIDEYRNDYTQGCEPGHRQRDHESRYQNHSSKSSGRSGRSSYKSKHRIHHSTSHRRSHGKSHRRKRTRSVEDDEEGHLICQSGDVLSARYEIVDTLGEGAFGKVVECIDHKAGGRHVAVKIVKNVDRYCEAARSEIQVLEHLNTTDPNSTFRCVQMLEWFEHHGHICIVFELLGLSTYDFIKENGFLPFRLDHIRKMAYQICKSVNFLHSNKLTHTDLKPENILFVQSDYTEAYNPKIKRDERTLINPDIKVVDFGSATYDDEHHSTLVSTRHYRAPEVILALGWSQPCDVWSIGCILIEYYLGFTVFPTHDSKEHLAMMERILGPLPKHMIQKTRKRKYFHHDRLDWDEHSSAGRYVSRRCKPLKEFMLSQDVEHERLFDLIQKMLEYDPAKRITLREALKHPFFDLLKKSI
T14 sequence (Q9Y463 whole entry): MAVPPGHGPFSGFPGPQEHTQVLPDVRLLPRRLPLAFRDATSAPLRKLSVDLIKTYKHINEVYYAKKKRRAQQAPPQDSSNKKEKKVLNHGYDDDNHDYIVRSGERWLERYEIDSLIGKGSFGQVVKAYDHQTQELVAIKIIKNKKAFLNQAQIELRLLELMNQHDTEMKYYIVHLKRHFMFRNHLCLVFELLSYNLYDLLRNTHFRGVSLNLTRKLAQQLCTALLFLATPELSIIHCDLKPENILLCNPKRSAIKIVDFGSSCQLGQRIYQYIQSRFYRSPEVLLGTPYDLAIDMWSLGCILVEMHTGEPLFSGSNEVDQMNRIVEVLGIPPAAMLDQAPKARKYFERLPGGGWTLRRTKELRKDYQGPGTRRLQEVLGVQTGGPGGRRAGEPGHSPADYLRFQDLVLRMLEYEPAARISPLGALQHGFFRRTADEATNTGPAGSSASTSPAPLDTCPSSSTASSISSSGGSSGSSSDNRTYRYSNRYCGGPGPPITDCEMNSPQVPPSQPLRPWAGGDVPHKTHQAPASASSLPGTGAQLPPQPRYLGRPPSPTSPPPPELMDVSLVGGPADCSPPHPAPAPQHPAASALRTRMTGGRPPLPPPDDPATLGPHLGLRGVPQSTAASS

Cc1cc(/C=C/C#N)cc(C)c1Nc1ccnc(Nc2ccc(C#N)cc2)n1 [rilpivirine, (E)-4-((4-((4-(2-cyanoethenyl)-2,6-dimethylphenyl)amino)pyrimidin-2-yl)amino)benzonitrile]
remaining activity at 1 µM (IKKβ(h)): 95% | remaining activity at 1 µM (PAK5(h)): 91% | remaining activity at 1 µM (MARK1(h)): 82% | remaining activity at 1 µM (CK1γ3(h)): 107% | remaining activity at 1 µM (SGK3(h)): 99% | remaining activity at 1 µM (MLCK(h)): 95% | remaining activity at 1 µM (GRK7(h)): 70% | remaining activity at 1 µM (PAK1(h)): 92% | remaining activity at 1 µM (PIP4K2a(h)): 103% | remaining activity at 1 µM (KDR(h)): 85% | remaining activity at 1 µM (BIKe(h)): 56% | remaining activity at 1 µM (TSSK4(h)): 127% | remaining activity at 1 µM (PRK2(h)): 74% | remaining activity at 1 µM (CLK1(h)): 48% | remaining activity at 1 µM (DYRK1B(h)): 72% | remaining activity at 1 µM (ULK1(h)): 85% | remaining activity at 1 µM (MEKK3(h)): 72% | remaining activity at 1 µM (Rsk1(h)): 91% | remaining activity at 1 µM [1]: 96% | remaining activity at 1 µM (MAP4K3(h)): 91% | remaining activity at 1 µM (CaMKIV(h)): 81% | remaining activity at 1 µM [2]: 89% | remaining activity at 1 µM (CDK14/cyclinY(h)): 91% | remaining activity at 1 µM (STK32C(h)): 94% | remaining activity at 1 µM (FGFR1(V561M)(h)): 97% | remaining activity at 1 µM (STK32B(h)): 99% | % Residual Activity (CK1(y)): 92% | G2-M cells (U-937 cells): 36.61% | cell-cycle arrest (KG1 cells): induced G2/M cell-cycle arrest | G2-M cells (NB4 cells): 55.25% | G2-M cells (K-562 cells): 46.23% | G2-M cells (HL-60 cells; 5 μM): 31.15% | G2-M cells (HL-60 cells; 10 µM): 40.70% | time of maximum accumulation in the G2/M phase (HL-60 cells; 10 µM, time course): 16 h | G2-M cells (HL-60 cells; 20 μM): 46.32%
